One data set deals with SA5 (ATCC 49521). As to the kind of experiment: Effect of antibiotics and lysostaphin on growth of SA5 (% T, 96-well). In kind it is cell-based, Staphylococcus aureus. The settings on record: for inhibition and killing of the staph by antibiotic alone: antibiotic alone at 25 or 12.5 mg/ml, 5 and 22 hours. On the procedure:
It was determined whether low levels of lysostaphin would act synergistically with Nafcillin or Oxacillin to kill an SA5 (ATCC 49521). The study was performed in a 96-well dish to allow titration of lysostaphin and antibiotics. The end point was % T. Plating of bacteria from the assay plate was not done.
Fifty μl of SA5 (ATCC 49521) was reconstituted from a frozen stock and grown overnight on a blood agar plate at 37° C. Bacteria were transferred from the blood agar plate (approximately 25% of the lawn) into 30 mls of TSB and grown for 2 hours at 37° C. on a rotating shaker set at 250 rpm. […] A 1:4 dilution of this suspension in TSB gave a % T of ˜50% in a 96 well dish.
For the assay, lysostaphin (Sigma Cat L7386; lot 063M4011V; 3387.5 units/ml stock in water) was diluted in three-fold dilutions (in TSB) from 3 units/ml (row A) to 0.0123 units/ml (row G) in 50 μl/well. The wells in row H received TSB alone. This plate was designated the assay plate. In a separate 96-well plate (i.e. the dilution plate), Nafcillin (Sigma Cat N3269; lot SLBF8230V, 50 mg/ml in water) was diluted in TSB to 25 mg/ml and a second dilution of 12.5 mg/ml was also prepared (columns 1 and 2 of the dilution plate). Oxacillin (Sigma Cat 01002; lot SLBC9948V; 50 mg/ml in water) was diluted to 25 mg/ml in TSB and a second dilution of 12.5 mg/ml was also prepared (columns 4 and 5 of the dilution plate).
Fifty μl of the antibiotic solutions were transferred to the corresponding wells of the assay plate containing the lysostaphin solution. 50 μl of TSB alone was transferred to columns 3 and 6 (i.e. no antibiotic controls) of the assay plate. The combination of antibiotics and lysostaphin yielded a volume of 100 μl. 125 μl of S. aureus 49521, diluted 1:2 in TSB was then added to all wells of the plate, except wells H1, H2, H4 and H5, which served as the blank well for determining the % T. After addition of the bacteria, and between each determination of the % T, the plate was incubated at 37° C. with gentle rotation (˜50 rpm). The % T was then determined at 2 and 15 minutes after addition of the bacteria, and again at 5 hours and 22 hours after addition of the bacteria.

The test system of data set [1] is S. aureus type 5 (ATCC 49521). The data set can be described thus: % T (turbidity) lysis assay of S. aureus type 5 suspension in tubes. In kind it is cell-based, Staphylococcus aureus. The settings on record: 10 minutes at 37° C. The procedure: 50 μl of S. aureus type 5 (ATCC 49521) was plated onto blood agar plates and incubated overnight. The resulting bacterial lawn was transferred to 30 mls of TSB (tryptic soy broth; Remel cat 112740) and incubated at 37° C. for about 60 minutes at 225 rpm. The percent transmission (% T) of the bacterial suspension following incubation was about 7%. The % T was adjusted to 53% by addition of 100 μl of bacterial suspension to 4500 μl of TSB (in five individual tubes) and the % T was measured in each tube. An additional tube contained TSB alone. Tube #1 received no lysostaphin. Tube #2 was designated to receive 550 μl of recombinant lysostaphin, but the lysostaphin was erroneously added to Tube #3, and thus, Tube #2 was discarded. Tube #3 received 550 μl recombinant lysostaphin (from a 2,000 μg/ml stock solution) for a final concentration of about 220 μg/ml (this tube erroneously received lysostaphin dose intended for tube #2 (i.e. 500 μl of lysostaphin stock) plus the 50 μl of lysostaphin originally intended for this tube. Tube #4 received 500 μl of natural lysostaphin from S. staphylolyticus (from a 2,000 μg/ml stock solution) for a final concentration of about 200 μg/ml. Tube #5 received 50 μl of natural lysostaphin from S. staphylolyticus (from a 2,000 μg/ml stock solution) for a final concentration of about 20 μg/ml. The tubes were vortexed, incubated at 37° C. for 10 minutes at 150 rpm and the % T for each determined (see FIG. 3 which is summarized in Table 2). An increase in the % T indicates killing of bacteria. Both lysostaphins were highly likely active against this SA5.

The next data set has as its system SA5. The data set can be described thus: % T lysis assay of SA5 in 96-well configuration. In kind it is cell-based, Staphylococcus aureus. The settings on record: 0.1 μg/ml; for change in % T / killing: neat solution of SA5, 10 minutes at 37° C. (FIG. 4). On the procedure: A second assay was performed in which the SA5 and lysostaphin were tested in a 96-well configuration. For this assay, 100 μl of the SA5 solution was added to wells followed by 100 μl of the lysostaphin solution. % T was obtained at TO and the plate incubated at 37° C. for 10 minutes with gentle rotation. The % T was obtained and the results compared.

The subject of data set [2] is S. aureus cells. The settings on record: from COA; cited from earlier work.
The test system of data set [3] is S. aureus cells. The data set can be described thus: Enzymatic activity per certificate of analysis (COA). In kind it is biochemical, Staphylococcus aureus. The settings on record: from COAs of both products. The procedure:
Doses may also be as international units. One international unit (IU) is about 3.1 μg and will reduce the turbidity (A620) of a suspension of S. aureus cells from 0.250 to 0.125 in 10 minutes at pH 7.5 at 37° C. in a 6.0 ml reaction mixture.

In data set [4] the test system is anti-lysostaphin antibodies. The data set can be described thus: Assay of mouse sera on lysostaphin-coated plates after immunization. The settings on record: gamma-specific detection, compared with the other lysostaphin as coating antigen, regardless of the immunogen. In kind it is binding. The procedure: Assay of mouse sera on plates coated with lysostaphin from simulans expressed as recombinant in E coli and coated with natural lysostaphin from S. staphylolyticus. Mice received a primary immunization (subcutaneous) with 10 μg recombinant lysostaphin from E. coli (Sigma-Aldrich) (animal numbers 8603, 8604) or 10 μg of natural lysostaphin from S. staphylolyticus (Sigma-Aldrich) (animal numbers 8621-8623). Primary immunization was administered and boosted about three weeks later. No adjuvant was used for the immunizations. Serum samples were tested using gamma-specific detection (FIGS. 1 and 2). Bars represent binding seen with normal serum (first bar), serum after the first injection (second bar), and serum after the boost injection three weeks later (third and in most cases largest bar). The results on wells coated with simulans lysostaphin (FIG. 1) were stronger than the results on wells coated with staphylolyticus lysostaphin (FIG. 2), regardless of the immunogen. Mouse 8621 was poorly reactive on both coating antigens. Note that each graph is scaled to 1.500 on the y-axis for comparison purposes.

The source of these data is patent publication US20150182605A1, “Ultra-Low Dose Lysostaphin for Treating MRSA” (priority 2013, published 2015).

Bounds are passed on as bounds.

Take “lysostaphin: lysostaphin (Sigma Cat L7386; lot 063M4011V; 3387.5 units/ml stock in water); 27 kD glycylglycine endopeptidase”: the “synergy of lysostaphin with the antibiotics” value in the data set on SA5 (ATCC 49521) (lysostaphin 0.0123 units/ml with Nafcillin or Oxacillin, 5 to 22 hours) is “acted synergistically”. Besides, the “% T” value with SA5 (ATCC 49521) (lysostaphin 0.0123 units/ml without antibiotic, 5 hours, FIG. 8) is given as 97.0 % T; in the data set on SA5 (ATCC 49521) (lysostaphin 0.0123 units/ml without antibiotic, 5 hours, FIG. 11), 98.0 % T; in the data set with SA5 (ATCC 49521) (lysostaphin 0.0123 units/ml without antibiotic, 22 hours, FIG. 8), 75.4 % T; in the data set on SA5 (ATCC 49521) (lysostaphin 0.0123 units/ml without antibiotic, 22 hours, FIG. 11), 60.2 % T; in the data set on SA5 (ATCC 49521) (lysostaphin 0.0123 units/ml, within 5 hours), over 95 % T; with SA5 (ATCC 49521) (lysostaphin at concentrations higher than 0.0123 units/ml, at 5 (not shown)), over 95%. The “% T” value in the data set on SA5 (ATCC 49521) (most concentrations of lysostaphin, without antibiotics, after 22 hours) is “below 70%”.
With `CCOc1ccc2ccccc2c1C(=O)N[C@@H]1C(=O)N2[C@@H]1SC(C)(C)[C@@H]2C(=O)O` [Nafcillin, reference compound], in the data set with SA5 (ATCC 49521), the “inhibition and killing of the staph by antibiotic alone” value was “ineffective rapid inhibition and killing”.
As for “natural lysostaphin: natural lysostaphin from S. staphylolyticus (Sigma-Aldrich)”, the “Ending % T” value worked out at 95.0 % T in data set [1] (20 μg/ml, tube 5) and 94.6 % T in data set [1] (200 μg/ml, tube 4). Also, the “change in % T” value in the data set with SA5 (SA5 at a dilution of 1:2 vs neat SA5 (FIG. 5)) was “greater change”. The “change in % T / killing” value with SA5 is listed as “increased only slightly”.
With “recombinant lysostaphin: lysostaphin from simulans expressed as recombinant in E. coli (Sigma-Aldrich)”, the enzymatic activity entry in the data set on S. aureus cells [2] was “greater than 3,000 units per mg”. Also, the “activity relative to natural lysostaphin” value with S. aureus cells [3] is recorded as 6-7 fold. Moreover, the “binding of mouse serum antibodies to the coated lysostaphin” value in data set [4] is on record as “markedly higher binding”; in data set [4] (listed as simulans lysostaphin), “stronger”. In addition, the “Ending % T” value in data set [1] (220 μg/ml, tube 3, increase in % T indicates killing) turned out to be 94.0 % T. Besides, in the data set on SA5, the “change in % T / killing” value was “remained strong”.
For the compound `Cc1onc(-c2ccccc2)c1C(=O)N[C@@H]1C(=O)N2[C@@H]1SC(C)(C)[C@@H]2C(=O)O` [Oxacillin, reference compound], the “inhibition and killing of the staph by antibiotic alone” value with SA5 (ATCC 49521) is “ineffective rapid inhibition and killing”.
